The results in this text go back to patent US20210338679A1, “NOVEL USES” (INTRA-CELLULAR THERAPIES, INC., priority 2018, published 2021).

Assay [1] has as its system leukocytes, neutrophils, and macrophages (M1/M2 macrophages). Put plainly: Mouse zymosan pleurisy model, flow cytometry of infiltrating cells. Conditions: for inflammatory resolution (shift from M1 to M2): zymosan sterile inflammation, FIGS. 1-9. Format: in vivo, mice. Here is the method:
(§1) Zymosan is injected into the pleural cavities of mice in order to induce sterile inflammation. Infiltration of leukocytes, neutrophils, and macrophages are monitored at days 3 and 7 following injection. Detection of various cell types are identified according to the gating strategy outlined in Table 1 below.
In this model, injection of zymosan causes the recruitment of various waves of leukocytes, which are observed and recorded. Exudate volume increases to a maximum over a period of 24 hours, and neutrophils increase within 4 hours and reach a maximum by 48 hours. Lymphocytes of the adaptive immune system enter at a later stage, after three days, which is signaled by macrophages presenting antigens. A resolution phase is well documented in this model and is accompanied by decreased total macrophage number and transition into M2 phenotype.
In the studies, Compounds 1 and 2 were administered to the test subjects, and the effect the compounds had on infiltration of leukocytes, neutrophils, and macrophages was observed.
Similar tests were conducted with Compound 2, the results of which are illustrated in FIGS. 8 and 9. […] An additional test was carried out according to the same method. Mice were injected intraperitoneally with 1 mg Zymosan followed by 10 mg/kg Compound 1. Macrophage levels were recorded at injection, then at 4, 8, 16, 24, 48 and 72 hours post-injection.

Assay [2] has as its system cytokine markers (IFNγ, IL-1β, MCP1-β, TNF-α, IL10, MCP-1/CCL2). Nature of the assay: Inflammatory cytokine biomarkers in mouse zymosan pleurisy model. Format: in vivo, mice. The method, then:
as §1
Zymosan was injected into the pleural cavities of mice in order to induce sterile inflammation by the methods discussed in Example 1. Compound 1 was administered to test subjects to observe the effects on a variety of inflammatory biomarkers. […] IFNγ, IL-1β, MCP1-β and TNF-α decreased following administration of Compound 1 in all serum and plasma samples.

In assay [3] the test system is metabolites of AA and DHA. Nature of the assay: Detection of arachidonic acid and docosahexaenoic acid metabolites in mouse zymosan pleurisy model. Format: in vivo, mice. The method, then:
Zymosan was injected into the pleural cavities of mice in order to induce sterile inflammation by the methods discussed in Example 1. Compound 1 was administered to test subjects to observe the effects on a variety of inflammatory biomarkers. Results were recorded after 4 hours. […] IFNγ, IL-1β, MCP1-β and TNF-α decreased following administration of Compound 1 in all serum and plasma samples.
Lipids are known to be involved in regulation of a multitude of cellular responses including cell growth and death, and inflammation/infection, via receptor-mediated pathways. Various lipids are involved in both the initiation and resolution of inflammation. Pro-resolving lipid mediators are produced naturally in the body from unsaturated fatty acids, such as arachidonic acid (AA) and docosahexaenoic acid (DHA). Further studies were carried out to identify metabolites of AA and DHA, which are summarized below in Tables 2 and 3.

The test system of assay [4] is BV2 cells. Nature of the assay: Microglia chemotaxis assay. Type of assay: cell-based. To be noted: 100 μM ADP, 4 hours; FIG. 10. The method, then:
BV2 cells were added to upper chamber of a 5 μm pore Transwell 96-well plate over a reservoir containing 100 μM ADP and incubated at 37° C. with 5% CO2 for 4 hours. After the incubation cells were harvested with pre-warmed cell detachment solution for 30 minutes in the same incubation conditions. 75 μl of this cell detachment solution was combined with 75 μl of culture medium in a new 96 well plate compatible with a fluorescence reader. Cell number in bottom chamber was determined by adding CyQuant® GR dye and reading in the Envision fluorescence reader at 480 nm EX/520 nm EM.

The test system of assay [5] is leukocytes, neutrophils, and macrophages (M1/M2 macrophages). Nature of the assay: Mouse zymosan pleurisy model, flow cytometry of infiltrating cells. Conditions: 1 mg Zymosan i.p. followed by 10 mg/kg; day 7; FIG. 11A. Format: in vivo, mice.
Where [6] appears, read: after 4 hours, serum and plasma samples.
[7] abbreviates: arachidonic acid metabolite, compared with controls.
Where [8] appears, read: docosahexaenoic acid metabolite.

Molecules are shown by their SMILES.

Regarding `CN1C(=O)c2c(nn(Cc3ccc(-c4ccccn4)cc3)c2Nc2ccccc2)N2C1=N[C@@H]1CCC[C@@H]12` [Compound 2], in assay [1] (3 mg/kg, day 7, FIG. 8), the “CD38+ macrophages” value is on record as “significant drop”. In addition, in assay [1] (3 mg/kg, day 7, FIG. 9), the “Erg2+ macrophages” value is “sharp and significant increase”. Besides, the “inflammatory resolution (shift from M1 to M2)” value in assay [1] is “enhanced inflammatory resolution”.

Regarding `C[C@@H]1C[C@H]2[C@@H]3CCC4=CC(=O)C=C[C@]4(C)[C@@]3(F)[C@@H](O)C[C@]2(C)[C@@]1(O)C(=O)CO` [Dexamethasone, reference compound], the “number of CD38+ macrophage populations” value in assay [1] (2 mg/kg, day 3 or 7, FIG. 8) was “no significant effect”. In addition, the “number of Erg2+ macrophage populations” value in assay [1] (2 mg/kg, day 3 or 7, FIG. 9) was “no significant effect”.

Take `CN1C(=O)c2c(nn(Cc3ccc(-c4cccc(F)n4)cc3)c2Nc2ccccc2)N2C1=N[C@@H]1CCC[C@@H]12` [Compound 1]: the “Arg1+ M2 macrophages” value in assay [1] (1 mg Zymosan i.p. followed by 10 mg/kg, 4 hours, FIG. 12A) is “increased”. Besides, the M1 macrophage levels entry in assay [1] (1 mg Zymosan i.p. followed by 10 mg/kg, all observed times, FIGS. 11A, 11B) is given as “lower M1 macrophage levels”. Also, in assay [1] (1 mg Zymosan i.p. followed by 10 mg/kg, relative to control at 2 and 3 days), the “CD206+ M2 macrophages” value is on record as “significantly increased”. Moreover, the “MFI for CD38+ on macrophages” value in assay [1] (day 3, among all animal groups, FIG. 6A) is listed as “lowest value”. Besides, the “total numbers of CD38+ macrophages” value in assay [1] (day 3, FIG. 5A) is listed as “decreased”. Also, in assay [1] (day 7, compared with disease only and vehicle animals, FIG. 3A), the number of neutrophils entry is given as “less dramatic decrease”. Further, in assay [1], the “inflammatory resolution (shift from M1 to M2)” value was “enhanced inflammatory resolution”. Besides, in assay [2] (after 4 hours, serum), the IL10 result is on record as “decrease”. Moreover, in assay [2] (setting [6]), the IFNγ entry is listed as “decreased”, the IL-1β result is listed as “decreased”, the MCP1-β entry is given as “decreased” and the TNF-α result is given as “decreased”. Further, the “inflammatory biomarkers (MCP-1/CCL2)” value in assay [2] (plasma, at 3 and 7 days, in comparison with control groups, FIG. 7) was “less inflammatory biomarkers”. In assay [3] (setting [7]), the “5-HETE (intermediate mediator linked to resolution)” value was “No change”, the “12-HETE (intermediate mediator linked to resolution)” value is given as “Increase”, the “15-HETE (intermediate mediator linked to resolution)” value is “Increase” and the “LTB4 (pro-inflammatory mediator)” value is “No change”. For the same molecule, in assay [3] (setting [7]), the “PGE2 (pro-inflammatory mediator)” value is “Decrease” and the “TXB2 (pro-inflammatory mediator)” value is recorded as “Decrease”. Moreover, in assay [3] (setting [8]), the “14-HDOHE (resolution mediator)” value is “Increase”, the “17-HDOHE (intermediate mediator linked to resolution)” value is recorded as “Increase” and the “RVD5 (intermediate mediator linked to resolution)” value was “Increase”. For the same molecule, the “motility of the BV2 cells across the membrane” value in assay [4] was “marked dampening effect”. Further, the “CD80+ macrophages (M1), difference to control” value in assay [5] is “significant different”.
